In ChEMBL document CHEMBL1201862, “PubChem BioAssay data set” (2004):
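Step 1: Grow cells in 96-well plates. Step 2: Expose to compound for 48 hours at 5 concentrations. Step 3: Interpolate endpoints linearly; if unreached, use highest concentration. GI50 marks 50% less growth.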 Active and inactive are the calls of the source. No stated cut-off is given here; in the data, active = GI50 up to about 1.1 µM and inactive = higher.

Key:
Assay in all cases: NCI tumour cell line growth inhibition, 48 h
UO-31 = tested on: UO-31
SK-MEL-28 = tested on: SK-MEL-28
DLD-1 = tested on: DLD-1
SF-268 = tested on: SF-268
UACC-257 = tested on: UACC-257
XF498 = tested on: XF498
HCC 2998 = tested on: HCC 2998
SW-620 = tested on: SW-620
SK-MEL-2 = tested on: SK-MEL-2
KM-20L2 = tested on: KM-20L2
HOP-92 = tested on: HOP-92
DMS-114 = tested on: DMS-114
CCRF-CEM = tested on: CCRF-CEM
Malme-3M = tested on: Malme-3M
RXF 631 = tested on: RXF 631
HOP-18 = tested on: HOP-18
UACC-62 = tested on: UACC-62
KM12 = tested on: KM12
HCT-15 = tested on: HCT-15
HOP-62 = tested on: HOP-62
NCI-H226 = tested on: NCI-H226
A549 = tested on: A549
SR = tested on: SR
NCI-H522 = tested on: NCI-H522
M14 = tested on: M14
MOLT-4 = tested on: MOLT-4
K562 = tested on: K562
ACHN = tested on: ACHN
OVCAR-8 = tested on: OVCAR-8
DMS-273 = tested on: DMS-273
IGROV-1 = tested on: IGROV-1
HT-29 = tested on: HT-29
OVCAR-4 = tested on: OVCAR-4
CAKI-1 = tested on: CAKI-1
U-251 = tested on: U-251
M19-MEL = tested on: M19-MEL
786-0 = tested on: 786-0
SF-539 = tested on: SF-539
OVCAR-3 = tested on: OVCAR-3
HCT-116 = tested on: HCT-116
SNB-75 = tested on: SNB-75
SNB-19 = tested on: SNB-19
NCI-H460 = tested on: NCI-H460
HL-60 = tested on: HL-60
NCI-H23 = tested on: NCI-H23
LXFL 529 = tested on: LXFL 529
SF-295 = tested on: SF-295
SN12C = tested on: SN12C
COLO 205 = tested on: COLO 205
RPMI-8226 = tested on: RPMI-8226
EKVX = tested on: EKVX
OVCAR-5 = tested on: OVCAR-5
A498 = tested on: A498
SNB-78 = tested on: SNB-78
LOX IMVI = tested on: LOX IMVI
SK-OV-3 = tested on: SK-OV-3
TK-10 = tested on: TK-10
SK-MEL-5 = tested on: SK-MEL-5
RXF 393 = tested on: RXF 393

Q: Which GI50 (UO-31) does the source give for `CC(=O)NC(CCCCNC(=O)N(CCCl)N=O)C(=O)NCc1ccccc1` (centres undefined) here?
A: > 100 µM (inactive)

Q: What about the GI50 (SK-MEL-28) of the same compound?
A: > 100 µM (inactive)

Q: What about the GI50 (DLD-1) of the same compound?
A: > 100 µM (inactive)

Q: What about the GI50 (SF-268) of the same compound?
A: 17.9 µM (inactive)

Q: What about the GI50 (UACC-257) of the same compound?
A: > 100 µM (inactive)

Q: And the GI50 (XF498)?
A: > 100 µM (inactive)

Q: What about the GI50 (HCC 2998) of the same compound?
A: > 100 µM (inactive)

Q: What about the GI50 (SW-620) of the same compound?
A: > 100 µM (inactive)

Q: And the GI50 (SK-MEL-2)?
A: > 100 µM (inactive)

Q: What about the GI50 (KM-20L2) of the same compound?
A: > 100 µM (inactive)

Q: What about the GI50 (HOP-92) of the same compound?
A: > 100 µM (inactive)

Q: What about the GI50 (DMS-114) of the same compound?
A: > 100 µM (inactive)

Q: And the GI50 (CCRF-CEM)?
A: > 100 µM (inactive)

Q: And the GI50 (Malme-3M)?
A: > 100 µM (inactive)

Q: And the GI50 (RXF 631)?
A: > 100 µM (inactive)

Q: And the GI50 (HOP-18)?
A: > 100 µM (inactive)

Q: What about the GI50 (UACC-62) of the same compound?
A: > 100 µM (inactive)

Q: What about the GI50 (KM12) of the same compound?
A: > 100 µM (inactive)

Q: What about the GI50 (HCT-15) of the same compound?
A: > 100 µM

Q: And the GI50 (HOP-62)?
A: > 100 µM (inactive)

Q: And the GI50 (NCI-H226)?
A: > 100 µM (inactive)

Q: And the GI50 (A549)?
A: > 100 µM (inactive)

Q: And the GI50 (SR)?
A: 91.6 µM (inactive)

Q: What about the GI50 (NCI-H522) of the same compound?
A: > 100 µM (inactive)

Q: And the GI50 (M14)?
A: > 100 µM (inactive)

Q: And the GI50 (MOLT-4)?
A: > 100 µM (inactive)

Q: And the GI50 (K562)?
A: > 100 µM (inactive)

Q: And the GI50 (ACHN)?
A: > 100 µM (inactive)

Q: What about the GI50 (OVCAR-8) of the same compound?
A: > 100 µM (inactive)

Q: And the GI50 (DMS-273)?
A: > 100 µM (inactive)

Q: What about the GI50 (IGROV-1) of the same compound?
A: 51.8 µM (inactive)

Q: And the GI50 (HT-29)?
A: > 100 µM (inactive)

Q: And the GI50 (OVCAR-4)?
A: > 100 µM (inactive)

Q: And the GI50 (CAKI-1)?
A: > 100 µM (inactive)

Q: What about the GI50 (U-251) of the same compound?
A: 61.7 µM (inactive)

Q: And the GI50 (M19-MEL)?
A: > 100 µM (inactive)

Q: What about the GI50 (786-0) of the same compound?
A: 35.9 µM (inactive)

Q: And the GI50 (SF-539)?
A: 29 µM (inactive)

Q: And the GI50 (OVCAR-3)?
A: > 100 µM (inactive)

Q: And the GI50 (HCT-116)?
A: > 100 µM (inactive)

Q: What about the GI50 (SNB-75) of the same compound?
A: 27.2 µM (inactive)

Q: What about the GI50 (SNB-19) of the same compound?
A: > 100 µM (inactive)

Q: And the GI50 (NCI-H460)?
A: 28.6 µM (inactive)

Q: And the GI50 (HL-60)?
A: > 100 µM (inactive)

Q: What about the GI50 (NCI-H23) of the same compound?
A: > 100 µM (inactive)

Q: What about the GI50 (LXFL 529) of the same compound?
A: > 100 µM (inactive)

Q: And the GI50 (SF-295)?
A: 55.2 µM (inactive)

Q: What about the GI50 (SN12C) of the same compound?
A: > 100 µM (inactive)

Q: And the GI50 (COLO 205)?
A: > 100 µM (inactive)

Q: And the GI50 (RPMI-8226)?
A: > 100 µM (inactive)

Q: And the GI50 (EKVX)?
A: > 100 µM (inactive)

Q: How did the GI50 (UO-31) turn out when `Cc1nc2ccccc2c(=O)n1/N=C(\N=N\c1ccccc1)c1ccccc1Cl` was run?
A: 29.2 µM (inactive)

Q: What about the GI50 (SK-MEL-28) of the same compound?
A: 79.3 µM (inactive)

Q: And the GI50 (DLD-1)?
A: 42.6 µM (inactive)

Q: And the GI50 (SF-268)?
A: 39 µM (inactive)

Q: What about the GI50 (UACC-257) of the same compound?
A: 75 µM (inactive)

Q: What about the GI50 (XF498) of the same compound?
A: 18.7 µM (inactive)

Q: What about the GI50 (HCC 2998) of the same compound?
A: 38.2 µM (inactive)

Q: What about the GI50 (SW-620) of the same compound?
A: > 88.5 µM (inactive)

Q: And the GI50 (SK-MEL-2)?
A: 20.7 µM (inactive)

Q: And the GI50 (KM-20L2)?
A: 65.5 µM (inactive)

Q: What about the GI50 (HOP-92) of the same compound?
A: 25 µM (inactive)

Q: And the GI50 (OVCAR-5)?
A: > 100 µM (inactive)

Q: What about the GI50 (DMS-114) of the same compound?
A: 26 µM (inactive)

Q: And the GI50 (CCRF-CEM)?
A: 26.7 µM (inactive)

Q: And the GI50 (Malme-3M)?
A: 53 µM (inactive)

Q: What about the GI50 (RXF 631) of the same compound?
A: > 71.4 µM (inactive)

Q: What about the GI50 (HOP-18) of the same compound?
A: 13.6 µM (inactive)

Q: What about the GI50 (A498) of the same compound?
A: 20.6 µM (inactive)

Q: And the GI50 (SNB-78)?
A: 30.2 µM (inactive)

Q: And the GI50 (UACC-62)?
A: 54.6 µM (inactive)

Q: What about the GI50 (KM12) of the same compound?
A: 41.4 µM (inactive)

Q: And the GI50 (HCT-15)?
A: 48.1 µM

Q: What about the GI50 (HOP-62) of the same compound?
A: 32.1 µM (inactive)

Q: What about the GI50 (NCI-H226) of the same compound?
A: 14.5 µM (inactive)

Q: What about the GI50 (A549) of the same compound?
A: 52.5 µM (inactive)

Q: And the GI50 (NCI-H522)?
A: 30.2 µM (inactive)

Q: What about the GI50 (M14) of the same compound?
A: > 86.7 µM (inactive)

Q: And the GI50 (MOLT-4)?
A: 14.8 µM (inactive)

Q: What about the GI50 (LOX IMVI) of the same compound?
A: 66.1 µM (inactive)

Q: What about the GI50 (K562) of the same compound?
A: 30.6 µM (inactive)

Q: And the GI50 (ACHN)?
A: 33.3 µM (inactive)

Q: What about the GI50 (OVCAR-8) of the same compound?
A: 59.7 µM (inactive)

Q: And the GI50 (DMS-273)?
A: 41 µM (inactive)

Q: What about the GI50 (IGROV-1) of the same compound?
A: 39.9 µM (inactive)

Q: What about the GI50 (HT-29) of the same compound?
A: 43.8 µM (inactive)

Q: And the GI50 (SK-OV-3)?
A: 11.2 µM (inactive)

Q: What about the GI50 (OVCAR-4) of the same compound?
A: 41 µM (inactive)

Q: And the GI50 (CAKI-1)?
A: 25.4 µM (inactive)

Q: What about the GI50 (U-251) of the same compound?
A: 40.6 µM (inactive)

Q: What about the GI50 (TK-10) of the same compound?
A: 38.9 µM (inactive)

Q: What about the GI50 (M19-MEL) of the same compound?
A: > 84.5 µM (inactive)

Q: And the GI50 (786-0)?
A: 44.8 µM (inactive)

Q: And the GI50 (SK-MEL-5)?
A: 38.3 µM (inactive)

Q: And the GI50 (SF-539)?
A: 23.5 µM (inactive)

Q: What about the GI50 (OVCAR-3) of the same compound?
A: 27 µM (inactive)

Q: And the GI50 (HCT-116)?
A: > 10 µM (inactive)

Q: And the GI50 (SNB-75)?
A: 23.8 µM (inactive)

Q: And the GI50 (RXF 393)?
A: 21.6 µM (inactive)

Q: And the GI50 (SNB-19)?
A: 48.1 µM (inactive)

Q: What about the GI50 (NCI-H460) of the same compound?
A: 24 µM (inactive)

Q: And the GI50 (HL-60)?
A: 33.3 µM (inactive)

Q: And the GI50 (NCI-H23)?
A: 27.7 µM (inactive)

Q: What about the GI50 (LXFL 529) of the same compound?
A: 24.3 µM (inactive)

Q: And the GI50 (SF-295)?
A: 1.04 µM (active)

Q: What about the GI50 (SN12C) of the same compound?
A: 32.4 µM (inactive)

Q: What about the GI50 (COLO 205) of the same compound?
A: > 100 µM (inactive)

Q: What about the GI50 (RPMI-8226) of the same compound?
A: 20.4 µM (inactive)

Q: What about the GI50 (EKVX) of the same compound?
A: 22.4 µM (inactive)
